“And” between values parts separate entries of the source, which are not always exact repeats. Equal entries are not always repeated. Structures can show the parent of a compound that is named as a salt. Where two headings read alike, the source gives them in different places.
Legend:
[1] = target: T1, recombinant human TDP2 (Homo sapiens, UniProt O95551); experiment: Recombinant TDP2 assay; type: biochemical; conditions: recombinant human TDP2, gel-based; read-out: TDP2: IC50 values for the inhibition of TDP2
T1 sequence (O95551 1-362): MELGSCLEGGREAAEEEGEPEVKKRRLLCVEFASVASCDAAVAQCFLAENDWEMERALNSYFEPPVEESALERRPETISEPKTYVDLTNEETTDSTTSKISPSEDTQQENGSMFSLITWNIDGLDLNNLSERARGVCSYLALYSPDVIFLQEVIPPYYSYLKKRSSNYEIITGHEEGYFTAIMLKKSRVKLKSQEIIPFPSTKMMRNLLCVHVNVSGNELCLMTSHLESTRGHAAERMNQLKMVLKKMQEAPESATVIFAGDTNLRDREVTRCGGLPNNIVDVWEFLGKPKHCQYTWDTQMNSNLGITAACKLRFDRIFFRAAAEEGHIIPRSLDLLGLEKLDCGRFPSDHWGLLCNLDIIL
Excerpt: Reactions were terminated and treated similarly to recombinant TDP1 reactions.
TDP2, as opposed to TDP1, cleaves the phosphotyrosyl linkage in 5′-phosphotyrosyl-DNA oligonucleotides.

[2] = tested on: approximately 60 different cancer cell lines; experiment: NCI-60 five-dose cytotoxicity assay, mean graph midpoint; type: cell-based; conditions: Homo sapiens, read-out: MGM: mean graph midpoint of growth inhibition (GI50)
Procedure: (§1) The new indenoisoquinolines were evaluated for cancer cell growth inhibitory activities. The National Cancer Institute's NCI-60 cytotoxicity assay measures the ability of test agents to inhibit the growth of approximately 60 different cancer cell lines. In the initial single-dose assay, cells are treated with a 10 μM dose of test agent. The growth of treated cells versus untreated cells is then compared. If a test agent induces a sufficiently low mean growth percent, it is promoted to five-dose testing to determine a mean graph midpoint (MGM) GI50 value. In five-dose testing, cells are treated with test agent concentrations ranging from 10^−8 to 10^−4 M. The concentration required to achieve 50% growth inhibition in a particular cell line is calculated. In situations in which this value is greater than 100 μM or less than 0.01 μM, it is recorded as 100 μM and 0.01 μM, respectively. The values for each of the tested cell lines are averaged to obtain a mean graph midpoint (MGM) GI50 value. MGM GI50 values are often, but not always, determined from two separate rounds (Table 1).

[3] = tested on: 60 human cancer cell lines; experiment: NCI-60 single-dose cytotoxicity assay; type: cell-based; conditions: mean-graph midpoint of percent growth of 60 human cancer cell lines, 10 μM drug, 48 h, relative to no-drug control and time zero
Procedure: as §1

[4] = tested on: Renal, SN12C; experiment: NCI-60 five-dose cytotoxicity assay, SN12C; conditions: Homo sapiens, read-out: Cytotoxicity GI50, Renal, SN12C
Procedure: as §1

[5] = tested on: Ovarian, OVCAR-3; experiment: NCI-60 five-dose cytotoxicity assay, OVCAR-3; conditions: Homo sapiens, OVCAR-3, read-out: Cytotoxicity GI50, Ovarian, OVCAR-3
Procedure: as §1

[6] = tested on: Colon, HCT-116; experiment: NCI-60 five-dose cytotoxicity assay, HCT-116; conditions: Homo sapiens, HCT-116, read-out: Cytotoxicity GI50, Colon, HCT-116
Procedure: as §1

[7] = target: T2, Top1 (Homo sapiens, UniProt P11387); experiment: Top1-mediated DNA cleavage assay; type: biochemical; conditions: score based on the activity of 1 μM 1 (camptothecin); tested at 0.1, 1, 10, 100 μM
T2 sequence (P11387 1-765): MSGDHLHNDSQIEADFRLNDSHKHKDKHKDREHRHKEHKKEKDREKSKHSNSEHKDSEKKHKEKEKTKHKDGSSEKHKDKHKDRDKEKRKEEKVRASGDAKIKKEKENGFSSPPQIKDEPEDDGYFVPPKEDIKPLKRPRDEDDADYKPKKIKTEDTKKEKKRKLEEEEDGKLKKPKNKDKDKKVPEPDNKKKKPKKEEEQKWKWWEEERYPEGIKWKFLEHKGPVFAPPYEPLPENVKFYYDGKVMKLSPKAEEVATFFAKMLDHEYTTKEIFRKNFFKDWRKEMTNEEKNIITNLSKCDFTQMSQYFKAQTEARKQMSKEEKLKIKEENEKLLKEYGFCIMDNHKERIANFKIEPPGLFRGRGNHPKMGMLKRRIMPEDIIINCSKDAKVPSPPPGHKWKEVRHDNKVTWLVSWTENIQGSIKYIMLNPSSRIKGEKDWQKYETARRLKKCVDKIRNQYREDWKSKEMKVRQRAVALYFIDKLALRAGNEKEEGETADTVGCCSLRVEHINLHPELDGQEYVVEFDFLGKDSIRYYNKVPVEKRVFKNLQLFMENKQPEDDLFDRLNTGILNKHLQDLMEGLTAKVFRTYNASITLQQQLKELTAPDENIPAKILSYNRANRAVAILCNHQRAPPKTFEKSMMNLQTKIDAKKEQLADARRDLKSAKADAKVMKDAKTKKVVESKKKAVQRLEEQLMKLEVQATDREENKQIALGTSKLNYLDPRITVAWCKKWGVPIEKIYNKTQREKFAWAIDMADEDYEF
Procedure: Approximately 2 nM radiolabeled DNA substrate was incubated with recombinant Top in 20 μL of reaction buffer [10 mM Tris-HCl (pH 7.5), 50 mM KCl, 5 mM MgCl2, 0.1 mM EDTA, and 15 μg/mL BSA] at 25° C. for 20 min in the presence of various concentrations of test compounds. […] Aliquots of each reaction mixture were subjected to 20% denaturing PAGE.
The Top1-mediated DNA cleavage assay was used to measure Top1 inhibitory activity. This assay measures the ability of the compound to stabilize DNA cleavage in a 3′-[^32P]-labeled DNA substrate via Top1 poisoning.

[8] = target: recombinant TDP1 (Homo sapiens, UniProt Q9NUW8); experiment: Recombinant TDP1 assay; type: biochemical; conditions: recombinant TDP1, gel-based; read-out: TDP1: IC50 values for the inhibition of TDP1
Procedure: A 5′-[^32P]-labeled single-stranded DNA oligonucleotide containing a 3′-phosphotyrosine (N14Y) was incubated at 1 nM with 10 pM recombinant TDP1 in the absence or presence of inhibitor for 15 min at room temperature in the LMP1 assay buffer containing 50 mM Tris HCl, pH 7.5, 80 mM KCl, 2 mM EDTA, 1 mM DTT, 40 μg/mL BSA, and 0.01% Tween-20^18. […] Gels were dried and exposed to a PhosphorImager screen (GE Healthcare). Gel images were scanned using a Typhoon 8600 (GE Healthcare), and densitometry analyses were performed using ImageQuant software (GE Healthcare).
TDP1 is involved in the repair of DNA damage that results from the action of Top1 poisons, which induce the formation of DNA-protein adducts that include a 3′-phosphotyrosyl linkage. The TDP1 inhibition assay assesses a test agent's ability to inhibit the enzyme-induced cleavage of a 5′-^32P, 3′-phosphotyrosyl-DNA oligonucleotide, called N14Y. Cleavage of the phosphodiester bond between the 3′-phosphate and tyrosine releases […] from the DNA oligonucleotide. The enzyme-processed DNA oligonucleotide lacking its 3′-phosphotyrosyl moiety is designated N14P. A schematic representation of the assay and a representative gel are shown in FIG. 2, and the TDP1 screening results are listed in Table 1.

[9] = tested on: Prostate, DU-145; experiment: NCI-60 five-dose cytotoxicity assay, DU-145; conditions: Homo sapiens, DU-145, read-out: Cytotoxicity GI50, Prostate, DU-145
Procedure: as §1

[10] = tested on: Breast, MCF7; experiment: NCI-60 five-dose cytotoxicity assay, MCF7; conditions: Homo sapiens, MCF7, read-out: Cytotoxicity GI50, Breast, MCF7
Procedure: as §1

[11] = tested on: Melanoma UACC-62; experiment: NCI-60 five-dose cytotoxicity assay, UACC-62; conditions: Homo sapiens, UACC-62, read-out: Cytotoxicity GI50, Melanoma UACC-62
Procedure: as §1

[12] = tested on: CNS, SF-539; experiment: NCI-60 five-dose cytotoxicity assay, SF-539; conditions: Homo sapiens, CNSSF-539, read-out: Cytotoxicity GI50, CNS, SF-539
Procedure: as §1

[13] = tested on: Lung, HOP-62; experiment: NCI-60 five-dose cytotoxicity assay, HOP-62; conditions: Homo sapiens, HOP-62, read-out: Cytotoxicity GI50, Lung, HOP-62
Procedure: as §1

[14] = target: T2, Top1; conditions: background statement; cited from earlier work
[15] = 5 dose assay, 10^−8-10^−4 M, average over tested cell lines

Chain of recombinant TDP1 (Q9NUW8 whole entry, species assumed): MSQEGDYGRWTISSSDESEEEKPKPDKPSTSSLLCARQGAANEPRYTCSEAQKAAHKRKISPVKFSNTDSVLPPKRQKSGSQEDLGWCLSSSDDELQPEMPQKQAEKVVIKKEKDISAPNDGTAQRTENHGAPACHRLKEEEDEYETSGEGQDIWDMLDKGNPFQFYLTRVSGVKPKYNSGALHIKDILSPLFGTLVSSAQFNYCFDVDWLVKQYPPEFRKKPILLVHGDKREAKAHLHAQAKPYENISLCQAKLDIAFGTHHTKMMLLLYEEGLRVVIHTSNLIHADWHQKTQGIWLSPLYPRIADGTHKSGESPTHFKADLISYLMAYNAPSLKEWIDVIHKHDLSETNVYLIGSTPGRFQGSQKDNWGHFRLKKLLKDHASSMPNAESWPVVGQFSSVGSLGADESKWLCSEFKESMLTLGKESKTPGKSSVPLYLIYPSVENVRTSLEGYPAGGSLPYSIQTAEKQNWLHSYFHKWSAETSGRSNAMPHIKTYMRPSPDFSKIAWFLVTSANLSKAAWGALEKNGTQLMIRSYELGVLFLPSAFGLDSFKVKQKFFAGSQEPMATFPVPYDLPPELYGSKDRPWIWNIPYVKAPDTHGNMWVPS

Row | SMILES | IC50 [1] [nM] | GI50 [2, 15] [nM] | activity at 10 µM [3] [%] | GI50 [4] [nM] | melting point [°C] | GI50 [5] [nM] | GI50 [6] [nM] | Top 1: compound-induced DNA cleavage due to Top1 poisoning [7] | IC50 [8] | GI50 [9] [nM] | GI50 [10] [nM] | GI50 [11] [nM] | GI50 [2] [nM] | GI50 [12] [nM] | GI50 [13] [nM] | Mean Growth % [3] [%] | Top1 inhibitory activity [14]
1 | CN(C)CCCn1c2c(c3cccnc3c1=O)C(=O)c1ccccc1-2 [Compound 47, 4-Aza-5,6-dihydro-6-(3-(dimethylamino)propyl)-5,11-dioxo-indeno[1,2-c]isoquinoline] | > 111000 | 1260 | 5.45 | 1120 | 183 to 184 | 2400 | 437 | +++ (+++, between 75 and 95% activity) | ~111000 nM | 1910 | 363 | 1290 |  |  |  |  | 
2 | CC[C@@]1(O)C(=O)OCc2c1cc1n(c2=O)Cc2cc3ccccc3nc2-1 [Compound 1, camptothecin, reference compound] |  |  |  | 20 |  | 220 | 30 |  |  | 10 | 10 | 10 | 40.5 | 10 | 10 |  | 
3 | CN(C)CCCn1c2c(c3ccncc3c1=O)C(=O)c1ccccc1-2 [Compound 46, 3-Aza-5,6-dihydro-6-(3-(dimethylamino)propyl)-5,11-dioxo-11H-indeno[1,2-c]isoquinoline] |  | 977 |  |  | 168 to 170 | 2000 | 380 | ++ (++, between 50 and 75% activity) |  |  |  |  |  |  |  |  | 
4 | CN(C)CCCn1c2c(c3cnccc3c1=O)C(=O)c1ccccc1-2 [Compound 45, 2-Aza-5,6-dihydro-6-(3-(dimethylamino)propyl)-5,11-dioxo-indeno[1,2-c]isoquinoline] | 37000 | 437 | -8.83 | 288 | 177 to 178 | 1100 | 245 | ++ (++, between 50 and 75% activity) | 63000 nM | 490 | 245 | 309 |  |  | 398 |  | 
5 | O=C1c2ccccc2-c2c1c1cnccc1c(=O)n2CCCn1ccnc1 [Compound 41, 2-Aza-5,6-dihydro-6-(3-(1H-imidazol-1-yl)propyl)-5,11-dioxo-indeno[1,2-c]isoquinoline] | > 111000 |  |  |  | 274 to 275 |  |  | ++ (++, between 50 and 75% activity) | > 111000 nM |  |  |  |  |  |  | 67.8 | 
6 | O=C1c2ccccc2-c2c1c1ccccc1c(=O)n2CCCNCCCNCCCn1c2c(c3ccccc3c1=O)C(=O)c1ccccc1-2 [Compound 5] |  |  |  |  |  |  |  |  |  |  |  |  |  |  |  |  | potent
7 | O=C1c2ccccc2-c2c1c1cccnc1c(=O)n2CCCN1CCOCC1 [Compound 39, 4-Aza-5,6-dihydro-6-(3-morpholinopropyl)-5,11-dioxo-indeno[1,2-c]isoquinoline] | > 111000 |  |  |  | 177 to 178 |  |  | +++ (+++, between 75 and 95% activity) | > 111000 nM |  |  |  |  |  |  | 42.9 | 
8 | O=C1c2ccccc2-c2c1c1ncccc1c(=O)n2CCCn1ccnc1 [Compound 40, 1-Aza-5,6-dihydro-6-(3-(1H-imidazol-1-yl)propyl)-5,11-dioxo-indeno[1,2-c]isoquinoline] | > 111000 |  |  |  | 242 to 243 |  |  | ++ (++, between 50 and 75% activity) | > 111000 nM |  |  |  |  |  |  | 83.6 | 
9 | O=C1c2ccccc2-c2c1c1cccnc1c(=O)n2C[C@H](O)CO [Compound 51, (2′S)-4-Aza-5,6-dihydro-6-(2′,3′-dihydroxypropyl)-5,11-dioxo-indeno[1,2-c]isoquinoline] | > 111000 |  |  |  | 247 to 255 |  |  | + (+, between 20 and 50%activity) | > 111000 nM |  |  |  |  |  |  | 61.7 | 
10 | NCCCn1c2c(c3cccnc3c1=O)C(=O)c1ccccc1-2 [Compound 60, 6-(3-Aminopropyl)-4-aza-5,6-dihydro-5,11-dioxo-indeno[1,2-c]isoquinoline Dihydrochloride] | > 111000 | 1510 | 12.2 | 1120 |  | 2290 | 537 | ++ (++, between 50 and 75% activity) | 60000 nM and > 111000 nM | 1910 | 417 | 1350 |  |  | 1450 |  | 

— patent US10759795B2, “Aza-A-ring indenoisoquinoline topoisomerase I poisons” (Purdue Research Foundation, priority 2016, dated 2020)
